This test has as its system adult-derived normal human fibroblasts. Put plainly: Collagen production promoting test (human collagen type 1 ELISA of supernatant). In kind it is cell-based. Conditions: final concentration 1 mg/mL; culture for 3 days; mean of 5 tests. The procedure:
As the cells for test, adult-derived normal human fibroblasts bought from Kurabo Industries Ltd. were used.
As a cell growth medium, DMEM added with 10% FBS and […] mixed solution was used; and as a test medium, DMEM added with 1% FBS and 1% penicillin-streptomycin mixed solution was used.
Adult-derived normal human fibroblasts were sown and initiated in a cell growth medium inside a cell culture flask (Corning's T-75), and cultured in a moist environment at 37° C. in the presence of 5% CO2. During this, the medium was replaced every other day, and at the time when the culture reached 80% confluent growth, the cells were collected and used in the following tests.
The cultured fibroblasts were sown in a 96-well plate to be 5×10^3 cells/0.1 mL/well, and cultured therein at 37° C. in the presence of 5% CO2 for 1 day. Subsequently, the cell growth medium in each well was replaced with each test medium added with the composition 1 or L-ascorbic acid 2-glucoside, or with a test medium not added with them (control medium). […] Subsequently, the cells were cultured at 37° C. in the presence of 5% CO2 for 3 days, then the supernatant of the test medium in each well was collected, and using a human collagen-type 1 ELISA kit, the I-type collagen concentration in the supernatant was measured. […]
Background: An ELISA detects its analyte on a solid surface through an enzyme-linked reagent.

For the compound `O=C1O[C@H]([C@@H](O)CO)C(O)=C1O[C@H]1O[C@H](CO)[C@@H](O)[C@H](O)[C@H]1O` [L-ascorbic Acid 2-Glucoside, L-ascorbic acid 2-glucoside], the “Collagen Production Amount (I-type collagen concentration in supernatant)” value worked out at 4.29 µg/mL.

Source of the values: patent publication US11179414B2, “Method for producing protease degradation composition” (LAIMU CORPORATION, priority 2018, dated 2021).
